Data: the supplement of paper PMC4862054
Values joined by “and” are separate entries in the source; they are usually repeats but may differ in a detail not shown here. Equal values may be shown once.

Key:
[1] = tested on: MDA-MB-231; test: drug sensitivity score (DSS), CellTiter-Glo (DSS (AUC-based score)); higher = stronger drug effect (viability inhibition or cytotoxicity); extreme values may be limits of the assay; conditions: incubation time: 72 h
How it was run: (§1)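 A drug sensitivity score was derived from the area under each fitted dose-response curve. Breast cancer cells (20 µl suspension) were seeded onto compound in 384-well plates, using 5 concentrations 10-fold apart over a compound-specific 10,000-fold range, and incubated 72 h. Readouts were CellTox Green fluorescence and then CellTiter-Glo luminescence, with every plate normalised to 0.1 % DMSO and a positive kill control.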

[2] = tested on: Hs578T; test: as above; conditions: incubation time: 72 h
How it was run: as §1

[3] = tested on: HCC1599; test: as above; conditions: incubation time: 72 h
How it was run: as §1

[4] = tested on: CAL-85-1; test: as above; conditions: incubation time: 72 h
How it was run: as §1

[5] = tested on: SK-BR-3; test: as above; conditions: incubation time: 72 h
How it was run: as §1

[6] = tested on: BT-474; test: as above; conditions: incubation time: 72 h
How it was run: as §1

[7] = tested on: HDQ-P1; test: as above; conditions: incubation time: 72 h
How it was run: as §1

[8] = tested on: MCF-10A; test: as above; conditions: incubation time: 72 h
How it was run: as §1

[9] = tested on: CAL-148; test: as above; conditions: incubation time: 72 h
How it was run: as §1

[10] = tested on: MDA-MB-453; test: as above; conditions: incubation time: 72 h
How it was run: as §1

[11] = tested on: HCC1143; test: as above; conditions: incubation time: 72 h
How it was run: as §1

[12] = tested on: MDA-MB-436; test: as above; conditions: incubation time: 72 h
How it was run: as §1

[13] = tested on: MDA-MB-468; test: as above; conditions: incubation time: 72 h
How it was run: as §1

[14] = tested on: BT-549; test: as above; conditions: incubation time: 72 h
How it was run: as §1

[15] = tested on: DU-4475; test: as above; conditions: incubation time: 72 h
How it was run: as §1

[16] = tested on: MFM-223; test: as above; conditions: incubation time: 72 h
How it was run: as §1

[17] = tested on: CAL-51; test: as above; conditions: incubation time: 72 h
How it was run: as §1

[18] = tested on: MDA-MB-436; conditions: 72 h
How it was run: (§2)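 Per-plate normalisation used 0.1 % DMSO and a positive kill control. Breast cancer cell lines (20 µl suspension) were seeded into 384-well plates containing compound at 5 concentrations in 10-fold steps across a compound-specific 10,000-fold range, incubated for 72 h, and read first for CellTox Green fluorescence (485/520 nm), then for CellTiter-Glo luminescence. EC50 was fitted from the dose-response curves and censored at the top concentration.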

[19] = tested on: MDA-MB-468; conditions: 72 h
How it was run: as §2

[20] = tested on: BT-549; conditions: 72 h
How it was run: as §2

[21] = tested on: CAL-51; conditions: 72 h
How it was run: as §2

[22] = tested on: HCC1143; test: normalised viability (% of control), CellTiter-Blue; higher = more viable cells (about 100 = DMSO control); conditions: incubation time: 72 h
How it was run: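 Breast cancer cell lines in 20 µl suspension were seeded onto 384-well plates pre-loaded with compound dissolved in 5 µl medium, then incubated 72 h. CellTiter-Blue reagent (2.5 µl) was added for 2 h at 37 °C and fluorescence read at 560/590 nm. Each plate was normalised to vehicle (100) and a positive kill control (0), with Z'-factor quality control. The value is normalised viability at one listed concentration of the series.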

[23] = tested on: MCF-10A; conditions: 72 h
How it was run: as §2

[24] = tested on: CAL-120; conditions: 72 h
How it was run: as §2

[25] = tested on: MFM-223; conditions: 72 h
How it was run: as §2

[26] = tested on: MDA-MB-231; conditions: 72 h
How it was run: as §2

[27] = tested on: Hs578T; conditions: 72 h
How it was run: as §2

[28] = tested on: BT-474; conditions: 72 h
How it was run: as §2

[29] = tested on: HCC1143; conditions: 72 h
How it was run: as §2

[30] = tested on: DU-4475; conditions: 72 h
How it was run: as §2

Structure (SMILES)	drug sensitivity score [1]	drug sensitivity score [2]	drug sensitivity score [3]	drug sensitivity score [4]	drug sensitivity score [5]	drug sensitivity score [6]	drug sensitivity score [7]	drug sensitivity score [8]	drug sensitivity score [9]	drug sensitivity score [10]	drug sensitivity score [11]	drug sensitivity score [12]	drug sensitivity score [13]	drug sensitivity score [14]	drug sensitivity score [15]	drug sensitivity score [16]	drug sensitivity score [17]	EC50, CellTiter-Glo [18] [nM]	EC50, CellTiter-Glo [19] [nM]	EC50, CellTiter-Glo [20] [nM]	EC50, CellTiter-Glo [21] [nM]	normalised viability ([22]; 10 nM) [%]	normalised viability ([22]; 100 nM)	normalised viability ([22]; 9.9 nM) [%]	EC50, CellTiter-Glo [23] [nM]	EC50, CellTiter-Glo [24] [nM]	EC50, CellTiter-Glo [25] [nM]	EC50, CellTiter-Glo [26] [nM]	EC50, CellTiter-Glo [27] [nM]	EC50, CellTiter-Glo [28] [nM]	EC50, CellTiter-Glo [29] [nM]	EC50, CellTiter-Glo [30] [nM]
Cc1c(Cn2c(C)nc3c(C(=O)O)cc(N4CCOCC4)cc32)cccc1C(F)(F)F	0	0	0	0	0	0	0	0	0	0	0	0.153	3.65	3.9	0	0	12.3	> 10000	534	53.6	8.16											
Cc1cccc(-c2nn3c(c2-c2ccnc4ccc(C(N)=O)cc24)CCC3)n1																						91										
Cn1cc(CNCC2CCN(c3ncc(C(=O)NO)cn3)CC2)c2ccccc21																						64.8										
O=C(NC[C@H](O)CO)c1ccncc1Nc1ccc(I)cc1F																							66%									
Nc1nc(=O)c2c([nH]1)NCC(CNc1ccc(C(=O)N[C@@H](CCC(=O)O)C(=O)O)cc1)N2C=O (mixture of isomers) [Folinic acid]																								86.1								
CCCCC/C=C/C=C1/C(=O)C=C[C@@H]1C/C=C\CCCC(=O)O [15D-PGJ2]	0	0	0	0	0	0	0	0	0	0	0	0	0	0	0	0	0															
COc1cc(CCc2cc(NC(=O)c3ccc(N4CC(C)NC(C)C4)cc3)n[nH]2)cc(OC)c1 (centres undefined) [AZD4547]	0	0.967	0	0	0	0	0	1.73	0	0.805	0	0	0	0.487	0	12.2	0			> 1000		86.9			91.2	68.8	5.91					
Cc1nc(Nc2ncc(C(=O)Nc3c(C)cccc3Cl)s2)cc(N2CCN(CCO)CC2)n1 [Dasatinib]	14.2	8.38	0	8.17	0	11.4	14.9	15.9	0	0	6.57	0.821	4.01	7.26	0	0	11.8		28.5	40.6	12.7				16.4	36.6		16.4	88.7	14	29.5	
O=S(=O)(c1cccc2cnccc12)N1CCCNCC1 [Fasudil]	0	0.0914	0	0	0	0	0	0	0	1.2	0	0	0	1.25	0.0897	0	0			24400			87.2%						> 50000			> 50000
CS(=O)(=O)N1CCN(Cc2cc3nc(-c4cccc5[nH]ncc45)nc(N4CCOCC4)c3s2)CC1 [GDC-0941]																							81.9%									
Cc1cccc(-c2nn3c(c2-c2ccnc4ccc(C(N)=O)cc24)CCC3)n1 [Galunisertib]	0	0	0	0	0	0	0	0	0	0	0	0	0	0	0	0	0.026				> 1000											
Nc1cccc2c1CN(C1CCC(=O)NC1=O)C2=O (centres undefined) [Lenalidomide]	0	0	0	0	0	0	0	0	0	0	0	0	0	0	0	0	0						81.8% and 68%			> 10000						
